Results published in US20160031925A1, “AZITHROMYCIN ANTIMICROBIAL DERIVATIVES WITH NON-ANTIBIOTIC PHARMACEUTICAL EFFECT” (priority 2013, published 2016).

Key:
[1] = system: Pseudomonas aeruginosa ATCC 9027; assay: Antimicrobial disk susceptibility test (CLSI M2-A9), P. aeruginosa; assay type: cell-based
Procedure: (§1) Test for the antimicrobial activity of the novel compounds may be performed according to the standards of Clinical and Laboratory Standards Institute, Performance Standards for Antimicrobial Disk Susceptibility Tests; approved Standard; M2-A), vol. 26 NO. 1 9th ed.
as §1, with “A test for” for “Test for”, “compounds were” for “compounds may be”, “ed. The samples were dissolved in 10 ml of sterile Milli-Q water by magnetic stirring overnight at 20° C.” for “ed.”
(§2) Two doses of the samples were tested in duplicate, a) and b). The size of the inhibition zones were measured in mm after incubation.

[2] = system: Escherichia coli ATCC 8739; assay: Antimicrobial disk susceptibility test (CLSI M2-A9), E. coli; assay type: cell-based
Procedure: as §1
as §1, with “A test for” for “Test for”, “compounds were” for “compounds may be”, “ed. The samples were dissolved in 10 ml of sterile Milli-Q water by magnetic stirring overnight at 20° C.” for “ed.”
as §2

[3] = system: Klebsiella pneumonia ATCC 35657; assay: Antimicrobial disk susceptibility test (CLSI M2-A9), K. pneumonia; assay type: cell-based
Procedure: as §1
as §1, with “A test for” for “Test for”, “compounds were” for “compounds may be”, “ed. The samples were dissolved in 10 ml of sterile Milli-Q water by magnetic stirring overnight at 20° C.” for “ed.”
as §2

[4] = system: Staphylococcus aureus ATTC 6538; assay: Antimicrobial disk susceptibility test (CLSI M2-A9), S. aureus; assay type: cell-based
Procedure: as §1
as §1, with “A test for” for “Test for”, “compounds were” for “compounds may be”, “ed. The samples were dissolved in 10 ml of sterile Milli-Q water by magnetic stirring overnight at 20° C.” for “ed.”
as §2

[5] = system: human airway epithelia; conditions: reference 6; cited from earlier work
[6] = 10 μg/disk, one value per organism (reference)

| Compound | size of the inhibition zone, P. aeruginosa a) ([1]; 5 μg/disk, duplicate a)) [mm] | size of the inhibition zone, P. aeruginosa b) ([1]; 5 μg/disk, duplicate b)) [mm] | size of the inhibition zone, P. aeruginosa a) ([1]; 10 μg/disk, duplicate a)) [mm] | size of the inhibition zone, P. aeruginosa b) ([1]; 10 μg/disk, duplicate b)) [mm] | size of the inhibition zone, E. coli a) ([2]; 5 μg/disk, duplicate a)) [mm] | size of the inhibition zone, E. coli b) ([2]; 5 μg/disk, duplicate b)) [mm] | size of the inhibition zone, E. coli a) ([2]; 10 μg/disk, duplicate a)) [mm] | size of the inhibition zone, E. coli b) ([2]; 10 μg/disk, duplicate b)) [mm] | size of the inhibition zone, K. pneumonia a) ([3]; 5 μg/disk, duplicate a)) [mm] | size of the inhibition zone, K. pneumonia b) ([3]; 5 μg/disk, duplicate b)) [mm] | size of the inhibition zone, K. pneumonia a) ([3]; 10 μg/disk, duplicate a)) [mm] | size of the inhibition zone, K. pneumonia b) ([3]; 10 μg/disk, duplicate b)) [mm] | size of the inhibition zone, S. aureus a) ([4]; 5 μg/disk, duplicate a)) [mm] | size of the inhibition zone, S. aureus b) ([4]; 5 μg/disk, duplicate b)) [mm] | size of the inhibition zone, S. aureus a) ([4]; 10 μg/disk, duplicate a)) [mm] | size of the inhibition zone, S. aureus b) ([4]; 10 μg/disk, duplicate b)) [mm] | effect on transepithelial electrical resistance / processing of tight junction proteins [5] | further results |
| --- | --- | --- | --- | --- | --- | --- | --- | --- | --- | --- | --- | --- | --- | --- | --- | --- | --- | --- |
| CCC1OC(=O)C(C)C(OC2CC(C)(OC)CC(C)O2)C(C)C(OC2OC(C)CC(N(C)C)C2C)C(C)(O)CC(C)CN(C)C(C)C(O)C1(C)O (stereo not drawn) [PP007] | <1 | <1 | <1 | <1 | <1 | <1 | <1 | <1 | <1 | <1 | <1 | <1 | <1 | <1 | <1 | <1 | – | – |
| CCC1OC(=O)C(C)C(OC2CC(C)(OC)C(C)C(C)O2)C(C)C(OC2CC(N(C)C)CC(C)O2)C(C)(O)CC(C)CN(C)C(C)C(O)C1(C)O (stereo not drawn) [PP008] | <1 | <1 | <1 | <1 | <1 | <1 | <1 | <1 | <1 | <1 | <1 | <1 | <1 | <1 | <1 | <1 | – | – |
| CC[C@H]1OC(=O)[C@H](C)[C@@H](O[C@H]2C[C@@](C)(OC)[C@@H](O)[C@H](C)O2)[C@H](C)[C@@H](O[C@@H]2O[C@H](C)C[C@H](N(C)C)[C@H]2O)[C@](C)(O)C[C@@H](C)CN(C)[C@H](C)[C@@H](O)[C@]1(C)O [azithromycin] | – | – | – | – | – | – | – | – | – | – | – | – | – | – | – | – | may increase the transepithelial electrical resistance | – |
| CC[C@H]1OC(=O)[C@H](C)[C@@H](O[C@H]2C[C@@](C)(OC)[C@@H](O)[C@H](C)O2)[C@H](C)[C@@H](O[C@@H]2O[C@H](C)C[C@H](N(C)C)[C@H]2O)[C@](C)(O)C[C@@H](C)C(=O)[C@H](C)[C@@H](O)[C@]1(C)O [erythromycin] | – | – | – | – | – | – | – | – | – | – | – | – | – | – | – | – | not observed | – |
| Gentamicin [reference compound] | – | – | – | – | – | – | – | – | – | – | – | – | – | – | – | – | – | size of the inhibition zone, P. aeruginosa [1, 6]: 27.2 mm; size of the inhibition zone, E. coli [2, 6]: 27.9 mm; size of the inhibition zone, K. pneumonia [3, 6]: 24.7 mm; size of the inhibition zone, S. aureus [4, 6]: 30.4 mm |
| penicillin | – | – | – | – | – | – | – | – | – | – | – | – | – | – | – | – | not observed | – |
